According to ChEMBL document CHEMBL1201862, “PubChem BioAssay data set” (2004):
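Protocol summary: plate cells (96-well), add compound at 5 concentrations, incubate 48 h, interpolate endpoints linearly. GI50: concentration for 50% inhibition of growth.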 The source made the active and inactive calls. Cut-off read from the data, not from the text of the source: active = GI50 up to about 1.1 µM and inactive = higher.

What was measured:
Assay in all cases: DTP human tumour cell line panel, 48 h
[1] = tested on: CAKI-1
[2] = tested on: CCRF-CEM
[3] = tested on: M14
[4] = tested on: NCI-H226
[5] = tested on: LOX IMVI
[6] = tested on: OVCAR-8
[7] = tested on: EKVX
[8] = tested on: U-251
[9] = tested on: SW-620
[10] = tested on: NCI-H23
[11] = tested on: MDA-N
[12] = tested on: SNB-19
[13] = tested on: OVCAR-5
[14] = tested on: DU-145
[15] = tested on: SK-MEL-28
[16] = tested on: PC-3
[17] = tested on: SK-MEL-5
[18] = tested on: ACHN
[19] = tested on: NCI/ADR-RES
[20] = tested on: RPMI-8226
[21] = tested on: IGROV-1
[22] = tested on: A498
[23] = tested on: MDA-MB-435
[24] = tested on: MDA-MB-231
[25] = tested on: TK-10
[26] = tested on: UACC-257
[27] = tested on: 786-0
[28] = tested on: HT-29
[29] = tested on: SN12C
[30] = tested on: HL-60
[31] = tested on: BT-549
[32] = tested on: K562
[33] = tested on: MCF7
[34] = tested on: MOLT-4
[35] = tested on: A549
[36] = tested on: T47D
[37] = tested on: NCI-H460
[38] = tested on: OVCAR-3
[39] = tested on: HCT-116
[40] = tested on: SF-268
[41] = tested on: Hs-578T
[42] = tested on: SK-MEL-2
[43] = tested on: RXF 393
[44] = tested on: COLO 205
[45] = tested on: Malme-3M
[46] = tested on: KM12
[47] = tested on: OVCAR-4
[48] = tested on: HOP-62
[49] = tested on: UACC-62
[50] = tested on: NCI-H522
[51] = tested on: UO-31
[52] = tested on: SF-295
[53] = tested on: HCT-15

Cc1ccc2c(=O)c(C(=O)Nn3c(C)csc3=S)c[nH]c2n1
GI50 [1]: 69 µM (inactive) | GI50 [2]: > 100 µM (inactive) | GI50 [3]: > 100 µM (inactive) | GI50 [4]: 83 µM (inactive) | GI50 [5]: > 100 µM (inactive) | GI50 [6]: > 100 µM (inactive) | GI50 [7]: > 100 µM (inactive) | GI50 [8]: > 100 µM (inactive) | GI50 [9]: > 100 µM (inactive) | GI50 [10]: > 100 µM (inactive) | GI50 [11]: > 100 µM (inactive) | GI50 [12]: > 100 µM (inactive) | GI50 [13]: > 100 µM (inactive) | GI50 [14]: > 100 µM (inactive) | GI50 [15]: > 100 µM (inactive) | GI50 [16]: > 100 µM (inactive) | GI50 [17]: > 100 µM (inactive) | GI50 [18]: > 100 µM (inactive) | GI50 [19]: > 100 µM (inactive) | GI50 [20]: > 100 µM (inactive) | GI50 [21]: > 100 µM (inactive) | GI50 [22]: > 100 µM (inactive) | GI50 [23]: > 100 µM (inactive) | GI50 [24]: > 100 µM (inactive) | GI50 [25]: > 100 µM (inactive) | GI50 [26]: > 100 µM (inactive) | GI50 [27]: > 100 µM (inactive) | GI50 [28]: > 100 µM (inactive) | GI50 [29]: > 100 µM (inactive) | GI50 [30]: > 100 µM (inactive) | GI50 [31]: > 100 µM (inactive) | GI50 [32]: > 100 µM (inactive) | GI50 [33]: > 100 µM (inactive) | GI50 [34]: > 100 µM (inactive) | GI50 [35]: > 100 µM (inactive) | GI50 [36]: > 100 µM (inactive) | GI50 [37]: > 100 µM (inactive) | GI50 [38]: > 100 µM (inactive) | GI50 [39]: > 100 µM (inactive) | GI50 [40]: > 100 µM (inactive) | GI50 [41]: > 100 µM (inactive) | GI50 [42]: > 100 µM (inactive) | GI50 [43]: > 100 µM (inactive) | GI50 [44]: > 100 µM (inactive) | GI50 [45]: > 100 µM (inactive) | GI50 [46]: > 100 µM (inactive) | GI50 [47]: > 100 µM (inactive) | GI50 [48]: > 100 µM (inactive) | GI50 [49]: > 100 µM (inactive) | GI50 [50]: > 100 µM (inactive) | GI50 [51]: > 100 µM (inactive) | GI50 [52]: > 100 µM (inactive) | GI50 [53]: > 100 µM
